The text below walks through data of US12492197B2, “3,5-disubstituted pyrazole compounds as kinase inhibitors and uses thereof” (IMPACT THERAPEUTICS (SHANGHAI), INC, priority 2019, dated 2025).

Experiment [1] deals with T1, CHK1 kinase (Homo sapiens, UniProt O14757).
T1 construct: purchased Promega V1941
T1 sequence (O14757 1-476): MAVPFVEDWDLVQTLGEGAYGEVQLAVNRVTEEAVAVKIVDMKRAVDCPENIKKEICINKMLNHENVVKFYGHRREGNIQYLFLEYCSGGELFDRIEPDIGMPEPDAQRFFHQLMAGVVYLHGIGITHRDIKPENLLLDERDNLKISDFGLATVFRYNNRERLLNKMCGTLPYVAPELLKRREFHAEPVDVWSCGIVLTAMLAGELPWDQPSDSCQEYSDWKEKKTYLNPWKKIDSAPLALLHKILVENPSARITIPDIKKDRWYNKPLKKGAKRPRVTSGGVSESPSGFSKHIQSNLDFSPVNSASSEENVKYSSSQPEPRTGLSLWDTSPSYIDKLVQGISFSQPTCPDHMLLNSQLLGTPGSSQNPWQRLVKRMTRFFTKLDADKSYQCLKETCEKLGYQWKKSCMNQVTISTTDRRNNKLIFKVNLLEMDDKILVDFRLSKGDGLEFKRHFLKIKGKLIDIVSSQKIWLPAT
Kind of experiment: CHK1 kinase inhibition, ADP-Glo kinase assay. In kind it is biochemical. Particulars: ATP 10 μM, CHK1 1 ng/well; for IC50: read-out: IC50 (inhibitory effect on CHK1 kinase activity); for inhibition at 0.01 µM: compound concentration 10 nM, read-out: Inh % (inhibitory effect on CHK1 kinase activity). Here is the method: 2 μL of kinase CHK1 (#V1941, Promega), 1 μL of compound diluted with buffer, and 2 μL of ATP substrate was successively added to a 384-well plate (final concentration of CHK1 was 1 ng/well, ATP was 10 μM). The positive control wells contained CHK1, ATP and DMSO whereas the negative control wells contained ATP, DMSO without enzyme. The mixtures were centrifuged at 1000 rpm for 1 minute and kept in darkness at room temperature for 1 hour to react. Then, 5 μL of ADP-Glo reagent was added to each well and incubated at room temperature for 40 minutes. At the end of incubation, 10 μL of kinase detection reagent was added to each well, and the relative chemiluminescence values (RLU) were measured on Varioskan® Flash (Thermo). The following calculation was performed: Inhibition rate %=(RLU of positive control−RLU of compound)/(RLU of positive control−RLU of negative control)×100. Data were analyzed using GraphPad Prism6.0 and fitted using the curve equation: Y=Bottom+(Top-Bottom)/(1+10^((Log IC50−X)*HillSlope)), and IC50 values were calculated.

The subject of experiment [2] is human breast cancer cell HCC1806. Kind of experiment: Proliferation of HCC1806 cells, MTT assay. Type of experiment: cell-based. Particulars: HCC1806, 72 h, 3 days treatment, read-out: IC50 (inhibition of proliferation of HCC1806). Here is the method:
Newly revived HCC1806 cells (purchased from Guangzhou Genio) were cultured and passaged for at least three generations before use. Cells were used at 90% confluency for experiments. Cells were digested with trypsinase and centrifuged at 800 rpm for 5 minutes. The cell pellets were resuspended in fresh RPMI1640 medium and cells were counted. Cells were seeded on 96-well cell culture plates at 2000 cells/well and incubated overnight at 37° C., 5% CO2. The stock solutions of the test substances (including the test compounds and the reference compound) were serially diluted to 8 concentrations with DMSO at a ratio of 1:3. Five μL of each of the serially diluted solutions were added to 120 μL of medium (diluted by 25 times) and mixed by shaking. […] The cell culture plates were returned to incubator at 37° C., 5% CO2 for 3 days. At the end of treatment the cell viability was determined by MTT colorimetric assay. Cell culture medium in each well was replaced by 100 μL/well of serum-free fresh medium containing MTT (0.5 mg/mL), and the culture was continued for additional 4 hours.
(§1) Data was analyzed by GraphPad Prism 6.0. The inhibitory effects of compounds on cell proliferation were plotted based on cell viability vs. the logarithm of compound concentration. Cell viability %=(ODcompound−ODbackground)/(ODDMSO−ODbackground)×100.

The test system of experiment [3] is human colon cancer cell LoVo. In words: Proliferation of LoVo cells, MTT assay. In kind it is cell-based. Particulars: 96 h, 4 days treatment, read-out: IC50 (inhibition of proliferation of LoVo). As to the method: Newly revived LoVo cells (purchased from Shanghai Cell Institute) were cultured and passaged for at least three generations before use. Cells were used at 90% confluence for experiment. Cells were digested with trypsinase and centrifuged at 800 rpm for 5 minutes and the supernatant was discarded. The cell pellets were resuspended in fresh RPMI1640 medium and counted. Cells were seeded on 96-well cell culture plates at 5000 cells/well and incubated overnight at 37° C., 5% CO2. The stock solutions of the test substances (including the test compounds and the reference compound) were serially diluted to 8 concentrations with DMSO at a ratio of 1:3. 5 μL of each series diluted solutions was added to 120 μL of medium (diluted by 25 times) and mixed by shaking. […] The cell culture plates were returned to incubator at 37° C. and 5% CO2 for 4 days. At the end of treatment, the cell viability was determined by MTT colorimetric assay. Cell culture medium in each well was replaced by 100 μL/well of serum-free DMEM medium containing MTT (0.5 mg/mL), and the culture was continued for additional 4 hours. Medium was then discarded and 100 μL/well of DMSO was added.
as §1

With `COc1cc(Cl)cc(OCC2CNC2)c1-c1cc(Nc2cnc(C#N)cn2)n[nH]1` [Example 67, 5-((5-(2-(azetidin-3-ylmethoxy)-4-chloro-6-methoxyphenyl)-1H-pyrazol-3-yl)amino)pyrazine-2-carbonitrile], the IC50 in experiment [1] was found to be 1.72 nM; in experiment [2], 8.7 nM; in experiment [3], 9.1 nM.
Turning to `COc1cc(Cl)cc(OC[C@H]2CCCNC2)c1-c1cc(Nc2cnc(C#N)cn2)n[nH]1` [Example 40, (S)-5-((5-(4-chloro-2-methoxy-6-(piperidin-3-ylmethoxy)phenyl)-1H-pyrazol-3-yl)amino)pyrazine-2-carbonitrile], the IC50 in experiment [1] came to 0.88 nM; in experiment [2] it was 5.5 nM; in experiment [3], 6.6 nM.
For `N#Cc1cnc(Nc2cc(-c3c(F)cccc3OC[C@H]3CCCNC3)[nH]n2)cn1` [Example 46, (S)-5-((5-(2-fluoro-6-(piperidin-3-ylmethoxy)phenyl)-1H-pyrazol-3-yl)amino)pyrazine-2-carbonitrile], in that order: 0.59 nM, 14.7 nM and 13.3 nM.
For the compound `COc1cccc(OCC2CNC2)c1-c1cc(Nc2cnc(C#N)cn2)n[nH]1` [Example 31, 5-((5-(2-(azetidin-3-ylmethoxy)-6-methoxyphenyl)-1H-pyrazol-3-yl)amino)pyrazine-2-carbonitrile], the IC50 in experiment [1] was determined as 0.38 nM; in experiment [2], 6.4 nM; in experiment [3], 5.6 nM.
For the compound `CCOc1cccc(OC[C@H]2CCCNC2)c1-c1cc(Nc2cnc(C#N)cn2)n[nH]1` [Example 35, (S)-5-((5-(2-ethoxy-6-(piperidin-3-ylmethoxy)phenyl)-1H-pyrazol-3-yl)amino)pyrazine-2-carbonitrile], the values for the IC50 in experiment [1], in experiment [2] and in experiment [3] were 1.78 nM, 21.6 nM and 21.2 nM, respectively.
In the case of `CC(C)Oc1cccc(OC[C@H]2CCCNC2)c1-c1cc(Nc2cnc(C#N)cn2)n[nH]1` [Example 36, (S)-5-((5-(2-isopropoxy-6-(piperidin-3-ylmethoxy)phenyl)-1H-pyrazol-3-yl)amino)pyrazine-2-carbonitrile], the inhibition at 0.01 µM in experiment [1] was 63%. The IC50 was found to be 698 nM in experiment [2] and 807 nM in experiment [3].
On to `COc1cccc(OC[C@H]2CCCCN2)c1-c1cc(Nc2cnc(C#N)cn2)n[nH]1` [Example 33, (R)-5-((5-(2-methoxy-6-(piperidin-2-ylmethoxy)phenyl)-1H-pyrazol-3-yl)amino)pyrazine-2-carbonitrile], for which the inhibition at 0.01 µM in experiment [1] worked out at 97%. The results for the IC50 in experiment [2] and in experiment [3] were 32.4 nM and 26 nM, respectively.
In the case of `COc1cc(F)cc(OC[C@H]2CCCN2)c1-c1cc(Nc2cnc(C#N)cn2)n[nH]1` [Example 66, (R)-5-((5-(4-fluoro-2-methoxy-6-(pyrrolidin-2-ylmethoxy)phenyl)-1H-pyrazol-3-yl)amino)pyrazine-2-carbonitrile], the IC50 in experiment [1] came out at 1.22 nM; in experiment [2], 26.5 nM; in experiment [3], 14.3 nM.
For `COc1cc(F)cc(OC[C@H]2CCCNC2)c1-c1cc(Nc2cnc(C#N)cn2)n[nH]1` [Example 38, (S)-5-((5-(4-fluoro-2-methoxy-6-(piperidin-3-ylmethoxy)phenyl)-1H-pyrazol-3-yl)amino)pyrazine-2-carbonitrile], in that order: 0.52 nM, 3.5 nM and 3.2 nM.
Turning to `COc1cccc(OC[C@@H]2CNCCS2)c1-c1cc(Nc2cnc(C#N)cn2)n[nH]1` [Example 76-A, (S)-5-((5-(2-methoxy-6-(thiomorpholin-2-ylmethoxy)phenyl)-1H-pyrazol-3-yl)amino)pyrazine-2-carbonitrile], the IC50 stood at 0.79 nM in experiment [1], 1.4 nM in experiment [2] and 2.1 nM in experiment [3].
The like results for `COc1c(F)ccc(OC[C@H]2CCCNC2)c1-c1cc(Nc2cnc(C#N)cn2)n[nH]1` [Example 37, (S)-5-((5-(3-fluoro-2-methoxy-6-(piperidin-3-ylmethoxy)phenyl)-1H-pyrazol-3-yl)amino)pyrazine-2-carbonitrile] were, in that order, 0.77 nM, 30.5 nM and 28.8 nM.
As to `CCc1cnc(Nc2cc(-c3c(OC)cccc3OC[C@H]3CCCNC3)[nH]n2)cn1` [Example 27, (S)-5-ethyl-N-(5-(2-methoxy-6-(piperidin-3-ylmethoxy)phenyl)-1H-pyrazol-3-yl)pyrazin-2-amine], in experiment [1], the inhibition at 0.01 µM turned out to be 95%. Also, the values for the IC50 in experiment [2] and in experiment [3] were 129 nM and 83.8 nM, respectively.
In the case of `N#Cc1cnc(Nc2cc(-c3c(F)cccc3OC[C@H]3CCNC3)[nH]n2)cn1` [Example 54, (S)-5-((5-(2-fluoro-6-(pyrrolidin-3-ylmethoxy)phenyl)-1H-pyrazol-3-yl)amino)pyrazine-2-carbonitrile], the IC50 was 0.86 nM in experiment [1], 30.7 nM in experiment [2] and 16.2 nM in experiment [3].
For `COc1cc(C(F)(F)F)cc(OC[C@H]2CCCNC2)c1-c1cc(Nc2cnc(C#N)cn2)n[nH]1` [Example 45, (S)-5-((5-(2-methoxy-6-(piperidin-3-ylmethoxy)-4-(trifluoromethyl)phenyl)-1H-pyrazol-3-yl)amino)pyrazine-2-carbonitrile], in that order: 1.57 nM, 8.8 nM and 9.5 nM.
For the compound `N#Cc1cnc(Nc2cc(-c3c(O)cccc3OC[C@H]3CCCNC3)[nH]n2)cn1` [Example 48, (S)-5-((5-(2-hydroxy-6-(piperidin-3-ylmethoxy)phenyl)-1H-pyrazol-3-yl)amino)pyrazine-2-carbonitrile], the IC50 in experiment [1] turned out to be 0.58 nM; in experiment [2], 6.5 nM; in experiment [3], 5.4 nM.
With `COc1cccc(OC[C@@H]2CNCCN2)c1-c1cc(Nc2cnc(C#N)cn2)n[nH]1` [Example 10, (S)-5-((5-(2-methoxy-6-(piperazin-2-ylmethoxy)phenyl)-1H-pyrazol-3-yl)amino)pyrazine-2-carbonitrile], in experiment [1], the inhibition at 0.01 µM worked out at 95%. In addition, the IC50 is 24.8 nM in experiment [2] and 23 nM in experiment [3].
On to `COc1cc(C)cc(OC[C@@H]2CNCCO2)c1-c1cc(Nc2cnc(C#N)cn2)n[nH]1` [Example 44, (S)-5-((5-(2-methoxy-4-methyl-6-(morpholin-2-ylmethoxy)phenyl)-1H-pyrazol-3-yl)amino)pyrazine-2-carbonitrile], for which the IC50 in experiment [1] amounted to 0.93 nM; in experiment [2], 13.3 nM; in experiment [3] it was 18 nM.
For `COc1cccc(OC[C@H]2CCCNC2)c1-c1cc(Nc2cnc(C#N)c(C)n2)n[nH]1` [Example 28, (S)-5-((5-(2-methoxy-6-(piperidin-3-ylmethoxy)phenyl)-1H-pyrazol-3-yl)amino)-3-methylpyrazine-2-carbonitrile], in that order: 0.3 nM, 42.2 nM and 42.5 nM.
